Results on one molecule are retold here after patent publication US8927489B2, “Sustained release preparation of pro-insulin C-peptide” (Cebix Incorporated, priority 2005, dated 2015).

For data set [1] the following is noted: dose injected into a rat; cited from earlier work.
The conditions of data set [2]: cited from earlier work.
Data set [3] can be described thus: Subcutaneous administration of C-peptide formulations in rats: C-peptide in serum. Format: in vivo, Sprague-Dawley male rats. The conditions noted are these: rat, sc, 75 nmole/kg as a common aqueous solution, within 2 h, data not shown, read-out: serum concentration of C-peptide. How it is done:
About 1 ml of each sample was transferred to a plastic syringe with a Luer-lok Tip (Becton Dickinson), which then was sealed with a Combi Stopper (Braun). Prior to administration a 23G Microlance (Becton Dickinson) was connected to the syringe. Each syringe was weighed before and after administration to the animal.
Thirty Sprague-Dawley male rats with a body weight of about 300 g were divided into 5 groups of 6 animals to test the uptake of C-peptide in the formulations outlined above. […] The serum obtained by centrifugation was collected and stored at −80° C. until analysis. Determination of C-peptide in serum was performed by an automatic immunoassay system (AutoDELFIA™ C-peptide, Perkin Elmer, Wallac Oy, Turku, Finland), with a detection limit of 0.005 nM and a precision below 5%. To fit into the calibration curve, the samples were diluted prior to analysis 100 times.

The structures appear in SMILES notation. Some results are limits rather than exact numbers.

In the case of `CC(C)C[C@H](NC(=O)[C@H](C)NC(=O)[C@H](CC(C)C)NC(=O)[C@@H]1CCCN1C(=O)[C@H](CCC(N)=O)NC(=O)[C@H](CC(C)C)NC(=O)[C@H](CO)NC(=O)CNC(=O)[C@H](C)NC(=O)CNC(=O)[C@@H]1CCCN1C(=O)CNC(=O)CNC(=O)CNC(=O)[C@H](CC(C)C)NC(=O)[C@H](CCC(=O)O)NC(=O)[C@@H](NC(=O)[C@H](CCC(N)=O)NC(=O)CNC(=O)[C@@H](NC(=O)[C@H](CCC(N)=O)NC(=O)[C@H](CC(C)C)NC(=O)[C@H](CC(=O)O)NC(=O)[C@H](CCC(=O)O)NC(=O)[C@H](C)NC(=O)[C@@H](N)CCC(=O)O)C(C)C)C(C)C)C(=O)N[C@@H](CCC(=O)O)C(=O)NCC(=O)N[C@@H](CO)C(=O)N[C@@H](CC(C)C)C(=O)N[C@@H](CCC(N)=O)C(=O)O` [C-peptide, proinsulin C-peptide], the “time within which an injected dose has disappeared entirely from circulation” value in data set [1] is 2 to 3 h. The “in vivo half life circulating in blood” value in data set [2] was “approximately 30 minutes”. Besides, the level at time molar in data set [3] was less than 1 nM.
